Data on one substance can be found in patent US20180186877A1 (NATIONAL CEREBRAL AND CARDIOVASCULAR CENTER, priority 2013, published 2018).

One test has as its system human blood plasma. The test can be described thus: Recalcification blood coagulation test with procyanidin. The test is classed as biochemical. Here is the method: An anti-blood coagulation effect yielded by procyanidin was confirmed by the recalcification blood coagulation test. […] Thereafter, as in Example 8, human blood plasma and Ca2+ were added to the test tube, and the coagulation time was measured. Then, the coagulation time of the test tube to which no procyanidin was added, was also measured in a similar manner. Furthermore, the coagulation time of the test tube to which no recombinant LOX-1 protein was added, was also measured in a similar manner.

For test [1], the target named is binding of LOX-1 to oxidized LDL (Homo sapiens, UniProt P78380). As to conditions: Nishizuka et al. 2011; cited from earlier work.

With procyanidin, the coagulation time entry in the test on human blood plasma (1 μg/mL procyanidin added to blood plasma alone, no LOX-1) is listed as “no influence”; in the test on human blood plasma (1 μg/mL procyanidin with 1 μg/mL LOX-1 and blood plasma, significance less than 5%), “reduction of the coagulation time was suppressed”. Besides, the “inhibition of binding of LOX-1 to oxidized LDL” value in test [1] is recorded as “inhibits”.
